These results are taken from BindingDB's records for patent US11447504 (Bayer Aktiengesellschaft; Bayer Pharma Aktiengesellschaft; …, 2022).

“And” between values parts separate entries of the source, which are not always exact repeats. Equal values may be shown once.

This assay concerns the target T1, Induced myeloid leukemia cell differentiation protein Mcl-1 [K194A,K197A,R201A] (Homo sapiens, UniProt Q07820, K194A/K197A/R201A).
T1 construct: gene MCL1
Briefly: MCL-1/Noxa BH3 Peptide (MCL-1 Assay). The procedure:
The dose-dependent inhibition by the compounds described in this invention of the interaction between MCL-1 and the BH3 domain of Noxa (both human) was determined using a steady state binding competition assay with time-resolved fluorescence energy transfer (TR-FRET) readout. […] The MBP-MCL-1 was purchased from Beryllium (Bedford, Mass., USA). […] The Noxa BH3-derived peptide can be obtained from e.g. Biosyntan (Berlin, Germany).

T1 sequence (Q07820 whole entry K194A/K197A/R201A, looked up): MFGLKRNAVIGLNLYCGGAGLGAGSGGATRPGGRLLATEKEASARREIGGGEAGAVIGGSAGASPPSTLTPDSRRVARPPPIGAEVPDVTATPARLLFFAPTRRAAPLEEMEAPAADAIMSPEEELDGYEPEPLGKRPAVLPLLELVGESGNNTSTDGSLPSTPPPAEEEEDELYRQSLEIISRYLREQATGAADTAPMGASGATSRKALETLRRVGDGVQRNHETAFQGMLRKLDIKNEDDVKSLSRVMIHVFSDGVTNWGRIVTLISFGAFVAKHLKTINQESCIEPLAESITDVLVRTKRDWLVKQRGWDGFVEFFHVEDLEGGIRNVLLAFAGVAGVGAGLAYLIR

On to `Cc1c2c(nn1C)N(C)CCCCCn1c(C(=O)O)c(CCCOc3cccc4ccccc34)c3ccc(Cl)c-2c31` [US11447504, Example 71], for which the IC50 was 2.2 nM.
With `CCc1c2c(nn1C)N(C)CCCCCn1c(C(=O)O)c(CCCOc3cccc4cc(F)ccc34)c3ccc(Cl)c-2c31` [US11447504, Example 77], the IC50 is 2.1 nM and 6.4 nM.
